Broadly, the EC50 is the midpoint of the concentration-response curve.

A short description of data set [1]: Mouse pharmacokinetic study (intravenous and oral). The class given is in vivo. To be noted: for in vivo exposure (in words) / half-life (in words): Examples compared to reference compound IDN-6556. The text has this: Experimental Example 2: Mouse Pharmacokinetic Study
The mice were randomly divided into two groups (one intravenous group and one oral group) or only oral group, 3 males in each group. The compounds were formulated into the designated preparations. The intravenous preparations should be filtered to provide clear solutions, and the oral preparations can be clear or can be uniform suspensions. All animals in the intravenous group were intravenously injected with the given doses of the compound preparations through tail veins. The oral group was administrated with the given doses of the preparations by gavage.
Whole blood samples were collected from the other side of the tail vein at 8 time points (2 min, 5 min, 15 min, 30 min, 1 h, 2 h, 4 h and 8 h after administration) in the intravenous group, about 25 μL for each sample; whole blood samples were collected from the tail vein at 8 time points (2 min, 5 min, 15 min, 30 min, 1 h, 2 h, 4 h and 8 h after administration) in the oral group, about 25 μL for each sample.
[…] were added to a centrifuge tube containing anticoagulants, and centrifuged at 4° C., 3000 g for 15 min. The supernatant plasma was quickly frozen on dry ice and stored in a ⋅ refrigerator at −70° C.±10° C. until LC-MS/MS analysis was performed.
The concentration data of plasma drug for the compounds were processed with the non-compartmental model using WinNonlin™ Version 6.3.0 (Pharsight, Mountain View, Calif.) pharmacokinetic software. The peak concentration (Cmax), time to peak concentration (Tmax) and last time for quantitative were obtained directly from the blood concentration-time chart.
The following pharmacokinetic parameters were calculated by using Log-linear Trapezoidal method: elimination phase half-life (T1/2); apparent volume of distribution (Vdss) and clearance rate (CL); the average residence time of the drug in vivo from 0 to the last time point (MRT0-last); the average residence time of the drug in vivo from zero time to infinity (MRT0-inf); the area under time-plasma concentration curve from 0 to the last time point (AUC0-last); the area under time-plasma concentration curve from zero time to infinity (AUC0-inf); initial concentration (C0).
For individual plasma concentrations of less than BQL, the concentrations appeared before Tmax were calculated as 0, and the concentrations appeared after Tmax were directly excluded. All parameters and ratios were reported in the forms of three significant digits.
The pharmacokinetic parameters of this experiment were calculated according to the theoretical blood collection times and the theoretical dose concentrations as described in the protocol. The deviations between the actual dose concentrations and the theoretical concentrations were within the range of ±20%. The deviations between the actual blood collection times and the theoretical blood collection times were in conformity with the relevant SOP (the point within 1 hour after administration was within the range of ±1 min, and the others were within 5% of the theoretical time).

Data set [2] deals with Anti-Fas-induced Jurkat cells. Briefly: Anti-Fas-induced apoptosis of Jurkat cells in vitro (Caspase 3 substrate Ac-DEVD-AMC fluorescence). To be noted: Homo sapiens; Jurkat Clone E6-1, Anti-Fas 50 ng/mL, 24 hours, Ac-DEVD-AMC 10 μM. Type of data set: cell-based.

Like-named read-outs stand apart in the source and are kept apart here.

With `O=C(O)C[C@H](NC(=O)C1CCN(C(=O)OC2CCCC2)CC1)C(=O)COc1c(F)c(F)cc(F)c1F` [Example 69], the “in vivo exposure (in words)” value in data set [1] is given as “significantly improved”. Further, in data set [1] (oral administration 10 mpk), the “Area under the concentration-time curve” value worked out at 4.18 µM·h, the Peak concentration was 1993 nM and the “Time to peak concentration” value amounted to 0.5 h.
For the molecule `O=C(O)C[C@H](NC(=O)C1CCN(C(=O)C2CCCC2)CC1)C(=O)COc1c(F)c(F)cc(F)c1F` [Example 49], the “in vivo exposure (in words)” value in data set [1] is listed as “significantly improved”. In data set [1] (intravenous injection 1 mpk), the “Apparent volume of distribution” value turned out to be 0.653 L/kg, the “Area under the concentration-time curve” value is 0.852 µM·h, the Clearance rate turned out to be 38.6 mL/min/kg and the Half-life is 52.2 min. In data set [1] (oral administration 10 mpk), the “Area under the concentration-time curve” value turned out to be 1.708 µM·h, the Bioavailability turned out to be 20.1%, the Peak concentration came out at 405 nM and the “Time to peak concentration” value stood at 1 h.
For `C[C@H](NC(=O)C(=O)Nc1ccccc1C(C)(C)C)C(=O)N[C@@H](CC(=O)O)C(=O)COc1c(F)c(F)cc(F)c1F` [IDN-6556, reference compound], in data set [1], the “half-life (in words)” value was “relatively short” and the “in vivo exposure (in words)” value is reported as “low”. Moreover, in data set [1] (intravenous injection 1 mpk), the “Apparent volume of distribution” value is given as 0.82 L/kg, the “Area under the concentration-time curve” value worked out at 0.446 µM·h, the Clearance rate was 106 mL/min/kg and the Half-life turned out to be 15 min. In data set [1] (male, plasma, 10 mg/kg, oral administration 10 mpk, read-out: Bioavailability), the Bioavailability is ≤ 4%. Besides, in data set [1] (oral administration 10 mpk), the “Area under the concentration-time curve” value came out at 0.197 µM·h, the Bioavailability stood at 4.4%, the Peak concentration amounted to 227 nM and the “Time to peak concentration” value turned out to be 0.25 h.
Regarding `O=C(O)C[C@H](NC(=O)[C@@H]1CCCN(C(=O)C(=O)NC2CCCC2)C1)C(=O)COc1c(F)c(F)cc(F)c1F` [Example 27], the EC50 in data set [2] worked out at 21.1 nM.
The molecule `CC(C)(C)c1ccccc1NC(=O)C(=O)N1CC=CC[C@@H](C(=O)N[C@@H](CC(=O)O)C(=O)COc2c(F)c(F)cc(F)c2F)C1` [Example 12] registered a concentration giving a half-maximal response (EC50) in data set [2] of 52.5 nM.
On the same count and under the same terms, with `O=C(O)C[C@H](NC(=O)C1CCN(C(=O)c2cccnc2)CC1)C(=O)COc1c(F)c(F)cc(F)c1F` [Example 36] the figure was 10.3 nM; with `O=C(O)C[C@H](NC(=O)[C@@H]1COCCN(C(=O)c2noc3ccccc23)C1)C(=O)COc1c(F)c(F)cc(F)c1F` [Example 128], 9.15 nM.
With `CC(C)(C)c1ccccc1NC(=O)C(=O)N1CCC(C(=O)N[C@@H](CC(=O)O)C(=O)COc2c(F)c(F)cc(F)c2F)CC1` [Example 7], in data set [1], the “half-life (in words)” value is reported as “significantly improved” and the “in vivo exposure (in words)” value was “significantly improved”. The “oral bioavailability (in words)” value in data set [1] (compared to reference compound IDN-6556) was “significantly improved”. Further, in data set [1] (oral administration 10 mpk), the “Area under the concentration-time curve” value is 3.657 µM·h, the Peak concentration was 1636 nM and the “Time to peak concentration” value came to 0.833 h.
In the case of `CC(C)(C)c1ccccc1NC(=O)C(=O)N1CC[C@@H](C(=O)N[C@@H](CC(=O)O)C(=O)COc2c(F)c(F)cc(F)c2F)C2CCCCC21` (some centres unmarked) [Example 19], the response in data set [2] was half-maximal at 224 nM (EC50).
In data set [2], `O=C(O)C[C@H](NC(=O)[C@H]1CC[C@H](NC(=O)OCc2ccccc2)CC1)C(=O)COc1c(F)c(F)cc(F)c1F` [Example 25] showed an EC50 of 70.7 nM.
The same measure, in the same setting: under `CC(C)(C)c1ccccc1NC(=O)C(=O)N[C@H]1CC[C@H](C(=O)N[C@@H](CC(=O)O)C(=O)COc2c(F)c(F)cc(F)c2F)CC1` [Example 6] stands 552 nM; under `CN(C(=O)C(=O)N1CCC(C(=O)N[C@@H](CC(=O)O)C(=O)COc2c(F)c(F)cc(F)c2F)CC1)c1ccccc1C(C)(C)C` [Example 64], 64.7 nM; under `CC(C)(C)c1ccccc1NC(=O)C(=O)N1CCC(F)(C(=O)N[C@@H](CC(=O)O)C(=O)COc2c(F)c(F)cc(F)c2F)CC1` [Example 21], 97.9 nM.
Still for that read-out and setting: with `O=C(O)C[C@H](NC(=O)[C@H]1COCCN(C(=O)C(=O)Nc2ccccc2Cl)C1)C(=O)COc1c(F)c(F)cc(F)c1F` [Example 129] the figure was 5.65 nM; with `CC(C)[C@H]1CC[C@H](C)C[C@@H]1OC(=O)N1CCC(C(=O)N[C@@H](CC(=O)O)C(=O)COc2c(F)c(F)cc(F)c2F)CC1` [Example 77], 96 nM; with `O=C(O)C[C@H](NC(=O)C1CCN(C(=O)C(=O)Nc2cc(Cl)ccc2C(F)(F)F)CC1)C(=O)COc1c(F)c(F)cc(F)c1F` [Example 88], 33.8 nM.
`CC(C)(C)c1ccccc1NC(=O)C(=O)N1CCCC[C@H](C(=O)N[C@@H](CC(=O)O)C(=O)COc2c(F)c(F)cc(F)c2F)C1` (single isomer, unassigned) [Example 9]: in data set [2], the midpoint of the response, the EC50, lay at 65.5 nM.
Still for that read-out and setting: under `O=C(O)C[C@H](NC(=O)C1CC2CCC(C1)N2C(=O)OCc1ccccc1)C(=O)COc1c(F)c(F)cc(F)c1F` (some centres unmarked) [Example 14] stands 275 nM; under `O=C(O)C[C@H](NC(=O)C1CCN(C(=O)NC2CCCC2)CC1)C(=O)COc1c(F)c(F)cc(F)c1F` [Example 79], 26 nM; under `CC(C)(C)c1ccccc1NC(=O)C(=O)N1CCCC[C@@H](C(=O)N[C@@H](CC(=O)O)C(=O)COc2c(F)c(F)cc(F)c2F)C1` (single isomer, unassigned) [Example 10], 41.6 nM.
With `O=C(O)C[C@H](NC(=O)C1CCN(C(=O)c2nccc3ccccc23)CC1)C(=O)COc1c(F)c(F)cc(F)c1F` [Example 34], in data set [2], a half-maximal response (EC50) required 43 nM.
The same measure, in the same setting: with `O=C(O)C[C@H](NC(=O)[C@H]1COCCN(C(=O)c2cc(-c3ccccc3Cl)on2)C1)C(=O)COc1c(F)c(F)cc(F)c1F` [Example 125] the figure was 16.2 nM; with `O=C(O)C[C@H](NC(=O)C1CCN(C(=O)OCc2ccccc2)CC1)C(=O)COc1c(F)c(F)cc(F)c1F` [Example 71], 29.3 nM; with `CC(C)(C)c1ccccc1NC(=O)C(=O)N1CCCC[C@](C)(C(=O)N[C@@H](CC(=O)O)C(=O)COc2c(F)c(F)cc(F)c2F)C1` [Example 111], 23 nM.
Same read-out and setting: with `O=C(O)C[C@H](NC(=O)C1CCN(C(=O)OCc2cc(Cl)ccc2Cl)CC1)C(=O)COc1c(F)c(F)cc(F)c1F` [Example 96] the figure was 52.8 nM; with `O=C(O)C[C@H](NC(=O)[C@@H]1CCCN(C(=O)NC2CCCC2)C1)C(=O)COc1c(F)c(F)cc(F)c1F` [Example 29], 57.4 nM; with `O=C(O)C[C@H](NC(=O)C1CCN(C(=O)c2nc3ccccc3s2)CC1)C(=O)COc1c(F)c(F)cc(F)c1F` [Example 58], 16.6 nM.
For the molecule `CC(C)(C)c1ccccc1NC(=O)C(=O)N1CCOC[C@H](C(=O)N[C@@H](CC(=O)O)C(=O)COc2c(F)c(F)cc(F)c2F)C1` [Example 124], a half-maximal response in data set [2] (EC50) required 28.7 nM.
The molecule `CC(C)OC(=O)N1CCC[C@@H](C(=O)N[C@@H](CC(=O)O)C(=O)COc2c(F)c(F)cc(F)c2F)C1` [Example 30] had a 50% effective concentration (EC50) in data set [2] of 14.5 nM.
On the same count and under the same terms, under `O=C(O)C[C@H](NC(=O)C1CCN(C(=O)c2ccncc2)CC1)C(=O)COc1c(F)c(F)cc(F)c1F` [Example 37] stands 23.9 nM.

For the origin of these results see patent publication US10981860B2, “Caspase inhibitor and pharmaceutical composition, use and therapeutic method thereof” (Chia Tai Tianqing Pharmaceutical Group Co., Ltd., priority 2016, dated 2021).
